According to EP4745135A1 (Gluetacs Therapeutics (Shanghai) Co., Ltd., priority 2023, dated 2025):

Columns and labels:
CK1α = target: T1, CK1α (Homo sapiens, UniProt P48729+Q96SW2); experiment: Western blot, degradation of substrate protein in hPBMCs; format: cell-based; details: Western blot, 24 hours of compound treatment, compounds tested at 50 nM and 500 nM (concentration for the table not stated)
T1 construct: effects of the compounds of the present disclosure on the expression of target proteins in cells; endogenous in cells; host or cells: human PBMCs (Milecell Biotechnologies)

IKZF1 = target: T2, IKZF1 (Homo sapiens, UniProt Q13422+Q96SW2); experiment: as above; format: cell-based; details: Western blot, 24 hours of compound treatment, compounds tested at 50 nM and 500 nM (concentration for the table not stated)
T2 construct: effects of the compounds of the present disclosure on the expression of target proteins in cells; endogenous in cells; host or cells: human PBMCs (Milecell Biotechnologies)

IKZF2 = target: T3, IKZF2 (Homo sapiens, UniProt Q96SW2+Q9UKS7); experiment: as above; format: cell-based; details: Western blot, 24 hours of compound treatment, compounds tested at 50 nM and 500 nM (concentration for the table not stated)
T3 construct: effects of the compounds of the present disclosure on the expression of target proteins in cells; endogenous in cells; host or cells: human PBMCs (Milecell Biotechnologies)

IKZF3 = target: T4, IKZF3 (Homo sapiens, UniProt Q96SW2+Q9UKT9); experiment: as above; format: cell-based; details: Western blot, 24 hours of compound treatment, compounds tested at 50 nM and 500 nM (concentration for the table not stated)
T4 construct: effects of the compounds of the present disclosure on the expression of target proteins in cells; endogenous in cells; host or cells: human PBMCs (Milecell Biotechnologies)

WEE1 = target: T5, WEE1 (Homo sapiens, UniProt P30291+Q96SW2); experiment: as above; format: cell-based; details: Western blot, 24 hours of compound treatment, compounds tested at 50 nM and 500 nM (concentration for the table not stated)
T5 construct: effects of the compounds of the present disclosure on the expression of target proteins in cells; endogenous in cells; host or cells: human PBMCs (Milecell Biotechnologies)

GSPT1 = experiment: as above; format: cell-based, Human; details: Western blot, 24 hours of compound treatment, compounds tested at 50 nM and 500 nM (concentration for the table not stated)
[1] = target: T6, human Cereblon WT GST-tagged protein (Homo sapiens, UniProt Q96SW2); experiment: CRBN-binding affinity, HTRF (CEREBLON BINDING kit); details: for inhibition at 0.5 µM: read-out: Inhibition Rate at 0.5 µM (%); for inhibition at 2 µM: read-out: Inhibition Rate at 2 µM (%)
T6 construct: purchased CISBIO 64BDCRBNPEH
T6 sequence (Q96SW2 whole entry): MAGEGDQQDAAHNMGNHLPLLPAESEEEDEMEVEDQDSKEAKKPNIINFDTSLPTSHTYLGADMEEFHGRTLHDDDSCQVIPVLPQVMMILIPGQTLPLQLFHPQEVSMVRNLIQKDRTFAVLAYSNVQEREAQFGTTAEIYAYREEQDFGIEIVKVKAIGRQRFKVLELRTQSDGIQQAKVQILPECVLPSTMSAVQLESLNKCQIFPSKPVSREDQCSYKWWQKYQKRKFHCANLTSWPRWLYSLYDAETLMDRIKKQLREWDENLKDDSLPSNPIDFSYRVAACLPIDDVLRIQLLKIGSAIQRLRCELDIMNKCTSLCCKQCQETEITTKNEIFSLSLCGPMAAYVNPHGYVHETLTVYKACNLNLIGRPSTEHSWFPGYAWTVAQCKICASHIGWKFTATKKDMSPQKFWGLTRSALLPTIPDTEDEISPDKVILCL

T5 sequence (P30291 whole entry): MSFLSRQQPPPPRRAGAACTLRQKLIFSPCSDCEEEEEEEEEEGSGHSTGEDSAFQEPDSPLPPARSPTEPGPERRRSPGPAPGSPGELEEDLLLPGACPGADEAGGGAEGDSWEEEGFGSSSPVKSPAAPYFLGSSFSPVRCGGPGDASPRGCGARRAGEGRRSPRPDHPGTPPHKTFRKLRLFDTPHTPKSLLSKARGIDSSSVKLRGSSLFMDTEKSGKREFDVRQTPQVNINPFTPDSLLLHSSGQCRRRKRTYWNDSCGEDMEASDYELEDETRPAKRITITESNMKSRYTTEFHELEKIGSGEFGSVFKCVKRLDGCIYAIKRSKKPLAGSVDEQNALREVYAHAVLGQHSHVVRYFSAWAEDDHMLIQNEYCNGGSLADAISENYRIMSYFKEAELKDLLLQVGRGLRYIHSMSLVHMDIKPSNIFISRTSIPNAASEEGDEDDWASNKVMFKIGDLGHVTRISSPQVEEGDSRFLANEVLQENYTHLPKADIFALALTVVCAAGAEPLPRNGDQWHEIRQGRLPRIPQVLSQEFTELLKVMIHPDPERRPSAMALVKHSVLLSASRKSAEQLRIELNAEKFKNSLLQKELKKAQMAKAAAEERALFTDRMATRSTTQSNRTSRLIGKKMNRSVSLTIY
T5 sequence (Q96SW2 whole entry): as the sequence (Q96SW2 whole entry) above
T5 sequence (Q16531 whole entry partner): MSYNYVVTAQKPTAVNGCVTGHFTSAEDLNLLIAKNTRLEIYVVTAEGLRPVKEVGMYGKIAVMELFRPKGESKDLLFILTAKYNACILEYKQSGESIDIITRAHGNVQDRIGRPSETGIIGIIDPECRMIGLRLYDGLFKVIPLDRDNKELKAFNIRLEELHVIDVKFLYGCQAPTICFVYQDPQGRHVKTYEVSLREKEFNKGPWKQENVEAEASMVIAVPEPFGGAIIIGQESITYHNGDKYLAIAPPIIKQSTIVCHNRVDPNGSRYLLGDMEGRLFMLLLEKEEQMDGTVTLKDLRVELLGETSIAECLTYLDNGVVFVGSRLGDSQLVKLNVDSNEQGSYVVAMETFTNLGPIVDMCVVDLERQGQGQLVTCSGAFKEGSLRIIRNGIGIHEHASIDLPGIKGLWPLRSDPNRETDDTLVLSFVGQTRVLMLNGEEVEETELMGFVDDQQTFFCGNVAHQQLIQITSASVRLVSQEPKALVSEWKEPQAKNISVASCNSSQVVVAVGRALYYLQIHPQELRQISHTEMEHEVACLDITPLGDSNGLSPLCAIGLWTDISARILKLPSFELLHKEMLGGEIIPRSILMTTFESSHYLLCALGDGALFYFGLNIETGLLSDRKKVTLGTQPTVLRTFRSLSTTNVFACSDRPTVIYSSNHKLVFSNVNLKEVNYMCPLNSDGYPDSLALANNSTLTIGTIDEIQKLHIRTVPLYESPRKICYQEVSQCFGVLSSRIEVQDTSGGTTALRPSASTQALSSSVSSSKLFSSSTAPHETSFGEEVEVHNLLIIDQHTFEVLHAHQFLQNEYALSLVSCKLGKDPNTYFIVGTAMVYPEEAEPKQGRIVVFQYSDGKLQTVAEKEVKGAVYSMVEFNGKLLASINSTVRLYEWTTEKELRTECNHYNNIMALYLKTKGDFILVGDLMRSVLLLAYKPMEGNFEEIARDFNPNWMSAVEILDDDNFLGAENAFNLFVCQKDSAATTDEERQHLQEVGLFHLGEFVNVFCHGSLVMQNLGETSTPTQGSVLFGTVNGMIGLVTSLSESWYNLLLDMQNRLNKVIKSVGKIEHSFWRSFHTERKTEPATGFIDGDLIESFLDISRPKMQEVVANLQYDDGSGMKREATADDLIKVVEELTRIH
T2 sequence (Q13422 whole entry): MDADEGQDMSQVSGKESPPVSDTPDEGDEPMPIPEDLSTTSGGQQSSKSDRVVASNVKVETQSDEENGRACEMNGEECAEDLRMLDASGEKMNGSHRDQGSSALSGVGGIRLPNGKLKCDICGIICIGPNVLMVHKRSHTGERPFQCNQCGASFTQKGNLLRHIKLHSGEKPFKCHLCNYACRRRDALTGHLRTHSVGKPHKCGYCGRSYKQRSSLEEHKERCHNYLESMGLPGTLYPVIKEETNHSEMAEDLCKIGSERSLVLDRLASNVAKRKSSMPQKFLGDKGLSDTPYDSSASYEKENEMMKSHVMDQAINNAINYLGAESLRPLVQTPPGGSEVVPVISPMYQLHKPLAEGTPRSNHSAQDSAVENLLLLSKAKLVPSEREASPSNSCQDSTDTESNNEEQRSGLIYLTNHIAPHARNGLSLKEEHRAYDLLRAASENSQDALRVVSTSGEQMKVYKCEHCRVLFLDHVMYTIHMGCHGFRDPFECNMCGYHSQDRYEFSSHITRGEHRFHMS
T2 sequence (Q96SW2 whole entry): as the sequence (Q96SW2 whole entry) above
T2 sequence (Q16531 whole entry partner): as the sequence (Q16531 whole entry partner) above
T1 sequence (P48729 whole entry): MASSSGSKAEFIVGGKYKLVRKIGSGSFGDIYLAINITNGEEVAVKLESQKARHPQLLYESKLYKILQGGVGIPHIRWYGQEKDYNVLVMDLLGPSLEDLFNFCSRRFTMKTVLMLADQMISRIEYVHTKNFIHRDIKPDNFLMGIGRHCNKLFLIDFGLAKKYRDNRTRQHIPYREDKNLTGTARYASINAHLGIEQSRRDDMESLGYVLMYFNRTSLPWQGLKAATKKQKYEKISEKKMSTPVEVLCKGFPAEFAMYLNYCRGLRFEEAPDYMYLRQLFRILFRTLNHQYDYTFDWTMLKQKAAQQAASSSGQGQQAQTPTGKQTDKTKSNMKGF
T1 sequence (Q96SW2 whole entry): as the sequence (Q96SW2 whole entry) above
T1 sequence (Q16531 whole entry partner): as the sequence (Q16531 whole entry partner) above
T3 sequence (Q9UKS7 whole entry): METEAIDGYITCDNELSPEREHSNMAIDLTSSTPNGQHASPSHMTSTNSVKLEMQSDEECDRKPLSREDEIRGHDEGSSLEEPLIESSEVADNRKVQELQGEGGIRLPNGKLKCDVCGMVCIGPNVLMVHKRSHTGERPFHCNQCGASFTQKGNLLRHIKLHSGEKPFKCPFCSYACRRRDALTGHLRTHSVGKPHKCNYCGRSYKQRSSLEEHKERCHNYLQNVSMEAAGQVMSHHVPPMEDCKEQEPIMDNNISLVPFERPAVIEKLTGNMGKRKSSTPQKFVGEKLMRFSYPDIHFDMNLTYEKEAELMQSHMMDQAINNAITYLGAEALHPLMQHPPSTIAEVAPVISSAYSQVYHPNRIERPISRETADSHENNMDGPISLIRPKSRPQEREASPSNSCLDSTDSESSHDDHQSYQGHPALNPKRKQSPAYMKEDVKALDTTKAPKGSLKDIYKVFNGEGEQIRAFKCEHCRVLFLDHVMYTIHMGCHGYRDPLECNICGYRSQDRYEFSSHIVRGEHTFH
T3 sequence (Q96SW2 whole entry): as the sequence (Q96SW2 whole entry) above
T3 sequence (Q16531 whole entry partner): as the sequence (Q16531 whole entry partner) above
T4 sequence (Q9UKT9 whole entry): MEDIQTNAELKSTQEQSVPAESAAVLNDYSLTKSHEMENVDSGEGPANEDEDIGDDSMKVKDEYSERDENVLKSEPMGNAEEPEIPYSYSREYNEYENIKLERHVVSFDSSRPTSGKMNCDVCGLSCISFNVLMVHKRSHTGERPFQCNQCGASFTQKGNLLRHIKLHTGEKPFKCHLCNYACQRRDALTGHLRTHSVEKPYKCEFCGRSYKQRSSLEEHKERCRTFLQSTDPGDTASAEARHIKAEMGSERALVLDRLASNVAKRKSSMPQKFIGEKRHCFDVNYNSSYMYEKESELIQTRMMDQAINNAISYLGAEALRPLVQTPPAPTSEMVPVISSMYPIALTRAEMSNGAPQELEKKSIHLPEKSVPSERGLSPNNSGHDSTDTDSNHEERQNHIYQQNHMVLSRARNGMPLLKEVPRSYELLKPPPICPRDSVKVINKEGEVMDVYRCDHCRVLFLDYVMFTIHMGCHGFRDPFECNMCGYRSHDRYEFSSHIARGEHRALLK
T4 sequence (Q96SW2 whole entry): as the sequence (Q96SW2 whole entry) above
T4 sequence (Q16531 whole entry partner): as the sequence (Q16531 whole entry partner) above

inhibition at 0.5 µM [1]	inhibition at 2 µM [1]	SMILES	CK1α substrate protein remaining % (CK1α)	IKZF 1 substrate protein remaining % (IKZF1)	IKZF2 substrate protein remaining % (IKZF2)	IKZF3 substrate protein remaining % (IKZF3)	Wee1 substrate protein remaining % (WEE1)	GSPT1 substrate protein remaining % (GSPT1)
60 to 80%	80 to 100%	O=C1CCC(N2Cc3c(CN4CCN(c5nccc(Cl)c5F)CC4)cccc3C2=S)C(=O)N1 (stereo not drawn) [GT-08803, 3-(4-((4-(4-chloro-3-fluoropyridin-2-yl)piperazin-1-yl)methyl)-1-thioxoisoindolin-2-yl)piperidine-2,6-dione]	B (80%< substrate protein remaining %≤ 100%)	B (80%< substrate protein remaining %≤ 100%)	B (80%< substrate protein remaining %≤ 100%)	B (80%< substrate protein remaining %≤ 100%)	A (0% ≤ substrate protein remaining % ≤ 80%)	B (80%< substrate protein remaining %≤ 100%)
40 to 53%	60 to 80%	O=C1CCC(N2Cc3c(CN4CCN(c5nccc(Cl)c5Br)CC4)cccc3C2=S)C(=O)N1 (stereo not drawn) [GT-08804, 3-(4-((4-(3-bromo-4-chloropyridin-2-yl)piperazin-1-yl)methyl)-1-thioxoisoindolin-2-yl)piperidine-2,6-dione]	B (80%< substrate protein remaining %≤ 100%)	B (80%< substrate protein remaining %≤ 100%)	B (80%< substrate protein remaining %≤ 100%)	B (80%< substrate protein remaining %≤ 100%)	A (0% ≤ substrate protein remaining % ≤ 80%)	B (80%< substrate protein remaining %≤ 100%)
60 to 80%	60 to 80%	O=C1CCC(N2Cc3c(CN4CCN(c5c(Cl)cncc5Cl)CC4)cccc3C2=S)C(=O)N1 (stereo not drawn) [GT-08805, 3-(4-((4-(3,5-dichloropyridin-4-yl)piperazin-1-yl)methyl)-1-thioxoisoindolin-2-yl)piperidine-2,6-dione]	B (80%< substrate protein remaining %≤ 100%)	B (80%< substrate protein remaining %≤ 100%)	B (80%< substrate protein remaining %≤ 100%)	B (80%< substrate protein remaining %≤ 100%)	A (0% ≤ substrate protein remaining % ≤ 80%)	B (80%< substrate protein remaining %≤ 100%)
53 to 60%	80 to 100%	Cc1cc(N2CCN(Cc3cccc4c3CN(C3CCC(=O)NC3=O)C4=S)CC2)cc(C)n1 (stereo not drawn) [GT-08806, 3-(4-((4-(2,6-dimethylpyridin-4-yl)piperazin-1-yl)methyl)-1-thioxoisoindolin-2-yl)piperidine-2,6-dione]	B (80%< substrate protein remaining %≤ 100%)	B (80%< substrate protein remaining %≤ 100%)	B (80%< substrate protein remaining %≤ 100%)	B (80%< substrate protein remaining %≤ 100%)	A (0% ≤ substrate protein remaining % ≤ 80%)	B (80%< substrate protein remaining %≤ 100%)
60 to 80%	80 to 100%	O=C1CCC(N2Cc3c(CN4CCN(c5cc(Cl)nnc5Cl)CC4)cccc3C2=S)C(=O)N1 (stereo not drawn) [GT-08807, 3-(4-((4-(3,6-dichloropyridazin-4-yl)piperazin-1-yl)methyl)-1-thioxoisoindolin-2-yl)piperidine-2,6-dione]	B (80%< substrate protein remaining %≤ 100%)	B (80%< substrate protein remaining %≤ 100%)	B (80%< substrate protein remaining %≤ 100%)	B (80%< substrate protein remaining %≤ 100%)	A (0% ≤ substrate protein remaining % ≤ 80%)	B (80%< substrate protein remaining %≤ 100%)
60 to 80%	80 to 100%	O=C1CCC(N2Cc3c(CN4CCN(c5ncncn5)CC4)cccc3C2=S)C(=O)N1 (stereo not drawn) [GT-08808, 3-(4-((4-(1,3,5-triazin-2-yl)piperazin-1-yl)methyl)-1-thioxoisoindolin-2-yl)piperidine-2,6-dione]	B (80%< substrate protein remaining %≤ 100%)	B (80%< substrate protein remaining %≤ 100%)	B (80%< substrate protein remaining %≤ 100%)	B (80%< substrate protein remaining %≤ 100%)	A (0% ≤ substrate protein remaining % ≤ 80%)	B (80%< substrate protein remaining %≤ 100%)
53 to 60%	80 to 100%	O=C1CCC(N2Cc3c(CN4CCN(c5c(F)c(F)nc(F)c5F)CC4)cccc3C2=S)C(=O)N1 (stereo not drawn) [GT-08809, 3-(4-((4-(perfluoropyridin-4-yl)piperazin-1-yl)methyl)-1-thioxoisoindolin-2-yl)piperidine-2,6-dione]	B (80%< substrate protein remaining %≤ 100%)	A (0% ≤ substrate protein remaining % ≤ 80%)	A (0% ≤ substrate protein remaining % ≤ 80%)	A (0% ≤ substrate protein remaining % ≤ 80%)	A (0% ≤ substrate protein remaining % ≤ 80%)	A (0% ≤ substrate protein remaining % ≤ 80%)
60 to 80%	80 to 100%	O=C1CCC(N2Cc3c(CN4CCN(c5cccnn5)CC4)cccc3C2=S)C(=O)N1 (stereo not drawn) [GT-08810, 3-(4-((4-(pyridazin-3-yl)piperazin-1-yl)methyl)-1-thioxoisoindolin-2-yl)piperidine-2,6-dione]	B (80%< substrate protein remaining %≤ 100%)	B (80%< substrate protein remaining %≤ 100%)	B (80%< substrate protein remaining %≤ 100%)	B (80%< substrate protein remaining %≤ 100%)	A (0% ≤ substrate protein remaining % ≤ 80%)	B (80%< substrate protein remaining %≤ 100%)
60 to 80%	80 to 100%	O=C1CCC(N2Cc3c(CN4CCN(c5ccc(Cl)nn5)CC4)cccc3C2=S)C(=O)N1 (stereo not drawn) [GT-08811, 3-(4-((4-(6-chloropyridazin-3-yl)piperazin-1-yl)methyl)-1-thioxoisoindolin-2-yl)piperidine-2,6-dione]	A (0% ≤ substrate protein remaining % ≤ 80%)	A (0% ≤ substrate protein remaining % ≤ 80%)	A (0% ≤ substrate protein remaining % ≤ 80%)	A (0% ≤ substrate protein remaining % ≤ 80%)	A (0% ≤ substrate protein remaining % ≤ 80%)	A (0% ≤ substrate protein remaining % ≤ 80%)
60 to 80%	80 to 100%	O=C1CCC(N2Cc3c(CN4CCN(c5ncccn5)CC4)cccc3C2=S)C(=O)N1 (stereo not drawn) [GT-08812, 3-(4-((4-(pyrimidin-2-yl)piperazin-1-yl)methyl)-1-thioxoisoindolin-2-yl)piperidine-2,6-dione]	B (80%< substrate protein remaining %≤ 100%)	B (80%< substrate protein remaining %≤ 100%)	B (80%< substrate protein remaining %≤ 100%)	B (80%< substrate protein remaining %≤ 100%)	A (0% ≤ substrate protein remaining % ≤ 80%)	B (80%< substrate protein remaining %≤ 100%)
60 to 80%	80 to 100%	O=C1CCC(N2Cc3c(CN4CCN(c5cnccn5)CC4)cccc3C2=S)C(=O)N1 (stereo not drawn) [GT-08813, 3-(4-((4-(pyrazin-2-yl)piperazin-1-yl)methyl)-1-thioxoisoindolin-2-yl)piperidine-2,6-dione]	B (80%< substrate protein remaining %≤ 100%)	B (80%< substrate protein remaining %≤ 100%)	B (80%< substrate protein remaining %≤ 100%)	B (80%< substrate protein remaining %≤ 100%)	A (0% ≤ substrate protein remaining % ≤ 80%)	B (80%< substrate protein remaining %≤ 100%)
60 to 80%	80 to 100%	O=C1CCC(N2Cc3c(CN4CCN(c5ncnc(Cl)c5Cl)CC4)cccc3C2=S)C(=O)N1 (stereo not drawn) [GT-08814, 3-(4-((4-(5,6-dichloropyrimidin-4-yl)piperazin-1-yl)methyl)-1-thioxoisoindolin-2-yl)piperidine-2,6-dione]	B (80%< substrate protein remaining %≤ 100%)	B (80%< substrate protein remaining %≤ 100%)	A (0% ≤ substrate protein remaining % ≤ 80%)	B (80%< substrate protein remaining %≤ 100%)	B (80%< substrate protein remaining %≤ 100%)	B (80%< substrate protein remaining %≤ 100%)
